Drawing on US5198441A, “Derivatives of 1,2-dihydro 2-oxo quinoxalines, their preparation and their use in therapy” (Pierre Fabre Medicament, priority 1989, dated 1993), this text covers IC50 and inhibition for twelve molecules.

In brackets after ≈: the same amount, converted by molar mass.

Assay [1] concerns trachea contractions caused by potassium chloride. In words: Antagonism of the effect of potassium chloride (contraction of isolated guinea pig trachea). The conditions noted are these: Cavia porcellus, 5 min; potassium chloride 1850 μg/ml; 5 minutes contact; 37° C. Here is the method: (§1) The compounds of the invention were subjected to pharmacological tests which have shown their interest as broncholytics. For this purpose, the compounds were studied for their effect against contractions caused by various products in accordance with the following protocol.
(§2) A piece of the trachea of a male tri-color guinea pig of an average weight of 400 g is cut in a spiral and mounted (about 2.5 cm) in an isolated organ cell maintained thermostatically at 37° C. and filled with oxygenated tyrode. The isometric contractions caused by the different mediators are recorded by means of a Gould Statham UC2 detector (Gould Inc. Oxnard, Calif., USA) or UF1 Palmer Bioscience detector connected to a potentiometric recorder (Linseiss, Selb, Federal Republic of Germany). At the start of the experiment, the piece of trachea was placed under a tension of 1 g and set aside for one hour.
(§3) The following mediator concentrations are used (concentrations generally causing maximum contraction): histamine dihydrochloride, 10 μg/ml; acetylcholine chloride, 1 μg/ml; potassium salt of leucotrine D4, 0.05 μg/ml; potassium chloride, 1850 μg/ml. The concentrations of agents used produce contractions which become maximum within 5 to 15 minutes, depending on the mediators, and then remain at that level. One concentration of the product studied is administered for each contraction,and the product is left in contact with the trachea for 5 minutes. The inhibition, if any, obtained at the end of this time is measured (percentage variation in the amplitude of the contraction). The trachea is then washed for 15 seconds and set aside for about 10 minutes (time necessary to return to the base tone) before causing a new contraction.
(§4) The water-insoluble products are diluted in 0.178% (v/v) (final concentration in the bath) of dimethyl sulfoxide (DMSO).
(§5) The 50% inhibitory concentrations (IC 50) are calculated using an SAS program (Statistical Analysis System) based on Bliss and Cattel (Bliss C.I. and Cattel McK. Biological Assay Ann. Rev. Physiol. 5, 479, 1943).

For assay [2], the system named is trachea contractions caused by leucotriene D4. The experiment in a line: Antagonism of the effect of leucotriene D4 (contraction of isolated guinea pig trachea). The conditions noted are these: Cavia porcellus, 5 min, leucotriene D4 potassium salt 0.05 μg/ml, 5 minutes contact; for inhibition at 10 µg/mL: 10 μg/ml, percentage variation in the amplitude of the contraction. Here is the method:
as §1, §2, §3, §4, §5

For assay [3], the system named is trachea contractions caused by acetylcholine. In words: Antagonism of the effect of acetylcholine (contraction of isolated guinea pig trachea). The conditions noted are these: Cavia porcellus, 5 min; acetylcholine chloride 1 μg/ml; 5 minutes contact; 37° C. Here is the method: as §1, §2, §3, §4, §5
The test system of assay [4] is trachea contractions caused by histamine. The experiment in a line: Antagonism of the effect of histamine (contraction of isolated guinea pig trachea). The conditions noted are these: Cavia porcellus, 5 min; histamine dihydrochloride 10 μg/ml; 5 minutes contact; 37° C. Here is the method:
as §1, §2, §3, §4, §5

As usually defined, the IC50 is the concentration that gives 50% inhibition. `C=CCn1c(=O)c(CCCO)nc2ccccc21` [Compound 8] gave an IC50 in assay [1] of 12.3 µg/mL (≈ 50.3 µM).
What is called inhibition is the relative decrease from the control value, in per cent. On to `CC(C)=CCn1c(=O)c(CCCO)nc2ccccc21` [Compound 1, 1-prenyl 3-(3-hydroxypropyl) 1,2-dihydro 2-oxo quinoxaline], for which, in assay [2], the inhibition at 10 µg/mL was -71%. For the same molecule, the IC50 in assay [1] was determined as 5.6 µg/mL (≈ 20.6 µM); in assay [3] it was 25.5 µg/mL (≈ 93.6 µM); in assay [4] it was 0.9 µg/mL (≈ 3.3 µM).
As for `O=c1c(CCCO)nc2ccccc2n1CC1CC1` [Compound 15], the inhibition at 10 µg/mL in assay [2] was -64%.
On to `CC=CCn1c(=O)c(CCC(C)O)nc2ccccc21` (stereo not drawn) [Compound 19], for which the figures for the IC50 in assay [3] and in assay [4] were 16.5 µg/mL (≈ 60.6 µM) and 1.13 µg/mL (≈ 4.15 µM), respectively.
`COc1ccc(Cn2c(=O)c(CCC(C)O)nc3ccccc32)cc1` (stereo not drawn) [Compound 24] yielded an IC50 in assay [4] of 1.3 µg/mL (≈ 3.84 µM).
As to `C=CCn1c(=O)c(CCCO)nc2ccc(Cl)cc21` [Compound 5], the IC50 in assay [1] came out at 17 µg/mL (≈ 61 µM).
For the molecule `CCCn1c(=O)c(CCCOC(=O)NC)nc2ccccc21` [Compound 3, 1-propyl 3-(3-methylcarbamoyloxypropyl) 1,2-dihydro 2-oxo quinoxaline], the IC50 in assay [3] was 7.1 µg/mL (≈ 23.4 µM); in assay [4], 3.3 µg/mL (≈ 10.9 µM).
Molecule `O=c1c(CCCO)nc2ccccc2n1Cc1ccccc1` [Compound 17] displayed an IC50 in assay [4] of 0.43 µg/mL (≈ 1.46 µM).
With `CC=CCn1c(=O)c(CCCO)nc2ccccc21` [Compound 12], the inhibition at 10 µg/mL in assay [2] is -71%. The values for the IC50 in assay [1], in assay [3] and in assay [4] were 6.2 µg/mL (≈ 24 µM), 15.5 µg/mL (≈ 60 µM) and 0.54 µg/mL (≈ 2.09 µM), respectively.
`CC(C)=CCn1c(=O)c(CCC(C)O)nc2ccccc21` (stereo not drawn) [Compound 20]: the IC50 was found to be 9.7 µg/mL (≈ 33.9 µM) in assay [3] and 1.55 µg/mL (≈ 5.41 µM) in assay [4].
`CCCn1c(=O)c(CCCO)nc2ccccc21` [Compound 11] gave an IC50 in assay [4] of 3.45 µg/mL (≈ 14 µM).
Take `Cn1c(=O)c2[nH]cnc2n(C)c1=O` [theophylline, reference compound]: the IC50 in assay [2] (37° C.) came to 13.5 µg/mL; in assay [1], 21 µg/mL (≈ 117 µM); in assay [3] it was 65 µg/mL (≈ 361 µM); in assay [4] it was 11.5 µg/mL (≈ 63.8 µM).
